Data set [1] can be described thus: Tested for in vitro cytotoxic potency of compound in 9KB assay. The note with it: human, KB (9KB) cells; read-out: ED50 (the source's name). The data set is classed as cell-based.
The subject of data set [2] is P388. The data set can be described thus: Tested for in vivo antileukemic activity of compound against P388 at 12.5 mg/kg dose; NA means Not Active. Format: functional, organism-based. Details: dose 12.5 mg/kg. The note with it: Mus musculus.
Data set [3] relates to P388. Briefly: Tested for in vivo antileukemic activity of compound against P388 at 25 mg/kg dose; NA means Not Active. The note with it: Mus musculus. Format: functional, organism-based. Details: dose 25 mg/kg.
Data set [4] relates to P388. The data set can be described thus: Tested for in vivo antileukemic activity of compound against P388 at 50 mg/kg dose; NA means Not Active. The note with it: Mus musculus. Details: dose 50 mg/kg. Format: functional, organism-based.

Values after ≈ are worked out from the molar mass of the structure shown. Active and inactive are the calls of the source. The calls are words filed in the database; no cut-off is given here.

Turning to `COc1ccc2c(c1)[C@@]1(C)CC[C@@H](O2)C12CC2`, the CC50 in data set [1] was found to be 26 µg/mL (≈ 113 µM). The ED50 result in data set [2], in data set [3] and in data set [4] was “inactive” each time.

These data come from ChEMBL document CHEMBL1121533, “Synthesis of 8-methoxy-15,16-dinor-6,8,10-trichothecatriene 12,13 alpha-epoxide and 12,13 beta-epoxide as potential antineoplastic agents” (J Med Chem, 1980).
